US12503479B2, “Phospholipid-flavagline conjugates and methods of using the same for targeted cancer therapy” (Cellectar Biosciences, Inc., priority 2018, dated 2025)
Like-named read-outs stand apart in the source and are kept apart here.

Assays:
Intestinal Polyp = experiment: Uptake in benign tissues: Intestinal Polyp; format: in vivo; details: Endogenous Mouse, Adenoma (benign)
[1] = tested on: Mammary alveolar hyperplasia; experiment: Uptake in benign tissues: Mammary alveolar hyperplasia; format: in vivo; details: Endogenous Mouse
[2] = tested on: Caki-2 tumor cells (human clear cell renal cell carcinoma); details: 5 μM, 24 hours at 37° C., co-culture with normal fibroblast
Protocol: (§1) Normal fibroblast and Caki-2 tumor cells (human clear cell renal cell carcinoma) were plated and co-cultured overnight (FIG. 1F). […] The next day cells were washed and co-stained with nucleus stain (Hoescht 33342). CLR 1501 was excited and then detected with an Alexa-Fluor 488 filter.

Normal fibroblast = details: 5 μM, 24 hours at 37° C., co-culture with Caki-2 tumor cells
Protocol: as §1

[3] = tested on: PC3 (grade IV, human prostate adenocarcinoma) cell lines; details: 5 μM, 24 hours at 37° C.
Protocol: PC3 (grade IV, human prostate adenocarcinoma) cell lines were cultured overnight on micro slide VI (Ibidi, Verona, WI). […] The next day after washing with PBS, the cells were co-stained with nucleus stain (Hoechst 33342) and mitochondria marker (Mitotracker®) (Invitrogen, Carlsbad, CA). The cells were observed using Nikon A1R confocal microscope. CLR 1501 was excited and detected using Alexa-Fluor 488 filter, while nucleus stain and mitochondria stain were excited and detected using DAPI filter and Texas-Red filter, respectively.

Adrenal H-295 = details: SCID Mouse, Adenocarcinoma
Source text: (§2) Various cancer cell lines were exposed in vitro and in vivo to a fluorescently labelled PLE (CLR 1501, compound (1)).

Adrenal RL-251 = details: SCID Mouse, Adenocarcinoma
Source text: as §2

Breast 4T1 = details: Endogenous Mouse (orthotopic), Adenocarcinoma
Source text: as §2

Breast MCF-7 = details: Rat, Adenocarcinoma
Source text: as §2

Cervical = details: Endogenous Mouse, Adenocarcinoma
Source text: as §2

Colon CT-26 = details: SCID Mouse, Adenocarcinoma
Source text: as §2

Colon DLDI = details: SCID Mouse, Colorectal adenocarcinoma
Source text: as §2

Colon HT-29 = details: SCID Mouse, Colorectal adenocarcinoma
Source text: as §2

Colon LS-180 = details: Nude Mouse, Adenocarcinoma
Source text: as §2

Colon-51 = details: SCID Mouse, Colorectal adenocarcinoma
Source text: as §2

ColonLS180 = details: SCID Mouse, Colorectal adenocarcinoma
Source text: as §2

Esophageal = details: Endogenous Mouse, Adenocarcinoma
Source text: as §2

Glioma C6 = details: Rat xenograft
Source text: as §2

Glioma CNS1 = details: Rat xenograft
Source text: as §2

Glioma L9 = details: Rat xenograft
Source text: as §2

Glioma RG2 = details: Rat xenograft
Source text: as §2

Hepatocellular Carcinoma = details: Endogenous Mouse, Adenocarcinoma
Source text: as §2

Lung A-549 (NSCLC) = details: SCID Mouse, Adenocarcinoma
Source text: as §2

Lung NCI H-69 (Oat Cell) = details: SCID Mouse
Source text: as §2

Mammary AC = details: Apc^Min/+ mouse, Adenocarcinoma
Source text: as §2

Mammary SCC = details: Apc^Min/+ mouse, Squamous cell carcinoma
Source text: as §2

Melanoma A-375 = details: Nude Mouse
Source text: as §2

Melanoma = details: Mouse, Adenocarcinoma
Source text: as §2

Min Mouse Intestinal = details: Endogenous Mouse, Adenocarcinoma
Source text: as §2

Ovarian HTB-77 = details: Nude Mouse, Adenocarcinoma
Source text: as §2

Pancreatic BXPC3 = details: Nude Mouse, Adenocarcinoma
Source text: as §2

Pancreatic Capan-1 = details: Nude Mouse, Adenocarcinoma
Source text: as §2

Pancreatic Kras = details: Endogenous Mouse, Adenocarcinoma
Source text: as §2

Pancreatic c-myc = details: Endogenous Mouse, Adenocarcinoma
Source text: as §2

Prostate LnCap = details: Mouse, Adenocarcinoma
Source text: as §2

Prostate LuCap = details: Mouse, Adenocarcinoma
Source text: as §2

Prostate MatLyLu = details: Rat, Adenocarcinoma
Source text: as §2

Prostate PC-3 = details: SCID Mouse, Adenocarcinoma
Source text: as §2

Renal Cell ACHN = details: Nude Mouse (orthotopic), Adenocarcinoma
Source text: as §2

Renal Cell Caki-2 = details: Nude Mouse (orthotopic), Adenocarcinoma
Source text: as §2

Retinoblastoma = details: Endogenous Mouse, Blastoma
Source text: as §2

SCC1 = details: Nude Mouse, Squamous cell carcinoma
Source text: as §2

SCC6 = details: Nude Mouse
Source text: as §2

Sarcoma (Meth-A) = details: Nude Mouse, Fibrosarcoma
Source text: as §2

TRAMP prostate = details: Endogenous Mouse, Adenocarcinoma
Source text: as §2

[4] = tested on: Various cancer cell lines; details: in vitro and in vivo; uptake measured continuously for 24 hours
Source text: as §2

Walker-256 = details: Rat, Carcinosarcoma
Source text: as §2

[5] = tested on: cancer stem cells, normal brain tissue, and normal stem cells; details: FIG. 7
Source text: as §2

myeloma cell lines = details: FIG. 6
Source text: as §2

A549 cells = A549 cells treated with methyl b-cyclodextrin compared to untreated cells; 5 μμM, 24 hours
benign tissues = details: in vivo
[6] = tested on: A549 (human lung adenocarcinoma) cells; experiment: Cytotoxicity of parent compound versus PDC, tumor cells (Example 8); format: cell-based; details: increasing concentrations; FIG. 3
Protocol: A549 (human lung adenocarcinoma) cells and normal human dermal fibroblasts (NHDF) were plated in 96 well dishes overnight. […] The difference between the cytotoxicity of the PDC molecule for tumor cells and that of the normal cells may have indicated a potential to improve the parent molecules therapeutic index.

[7] = tested on: A375 (human malignant melanoma); experiment: IC50 in cell lines: A375; format: cell-based; details: A-375, read-out: IC50, A375
[8] = tested on: A549 (human lung adenocarcinoma); experiment: cells; format: cell-based; details: Homo sapiens, A549, read-out: IC50, A549
[9] = tested on: HCT 116 (human colon cancer); experiment: IC50 in cell lines: HCT 116; format: cell-based; details: HCT-116, read-out: IC50, HCT 116
[10] = tested on: NHDF (normal human dermal fibroblasts); experiment: cells; format: cell-based
[11] = format: in vivo, mice
Protocol: Listed in Table 5 are the doses administered to the mice, and how many mice were alive after treatment (“3/3” indicates 3 out of 3 mice were alive). […] MTD for CLR 1865 was between 5 and 10 mg/kg.

A375 and A549 cells = experiment: Levels of FLV3 in cell lysate and growth media (LC/MS); format: cell-based, human
Protocol: FIG. 11 is a graph of concentration versus time for FLV3 detected in the cytosol (normalized to the cytosolic volume) in A375 (human melanoma) and A549 (human lung adenocarcinoma) cell lines.
The levels of FLV3 in cell lysate and growth media were measured using LC/MS. […] Levels of intracellular FLV3 appeared to plateau at 24 hours, while extracellular levels of FLV3 continued to increase.

## C[N+](C)(C)CCOP(=O)([O-])OCCCCCCCCCCCCCCCCCCc1ccc(I)cc1 [CLR1404]
Intestinal Polyp
  Tumor Uptake: No
[1]
  Tumor Uptake: No

## C[N+](C)(C)CCOP(=O)([O-])OCCCCCCCCCCCCCCCCCCc1ccc(C2=C3C=CC=[N+]3[B-](F)(F)n3cccc32)cc1 [CLR 1501]
[2]
  Localization in Caki-2 cells: highly localized
Normal fibroblast
  Localization in normal fibroblast cells: minimally
[3]
  Co-localization with mitochondria: co-localized with mitochondria
Adrenal H-295
  Tumor Uptake: Yes
Adrenal RL-251
  Tumor Uptake: Yes
Breast 4T1
  Tumor Uptake: Yes
Breast MCF-7
  Tumor Uptake: Yes
Cervical
  Tumor Uptake: Yes
Colon CT-26
  Tumor Uptake: Yes
Colon DLDI
  Tumor Uptake: Yes
Colon HT-29
  Tumor Uptake: Yes
Colon LS-180
  Tumor Uptake: Yes
Colon-51
  Tumor Uptake: Yes
ColonLS180
  Tumor Uptake: Yes
Esophageal
  Tumor Uptake: Yes
Glioma C6
  Tumor Uptake: Yes
Glioma CNS1
  Tumor Uptake: Yes
Glioma L9
  Tumor Uptake: Yes
Glioma RG2
  Tumor Uptake: Yes
Hepatocellular Carcinoma
  Tumor Uptake: Yes
Lung A-549 (NSCLC)
  Tumor Uptake: Yes
Lung NCI H-69 (Oat Cell)
  Tumor Uptake: Yes
Mammary AC
  Tumor Uptake: Yes
Mammary SCC
  Tumor Uptake: Yes
Melanoma A-375
  Tumor Uptake: Yes
Melanoma
  Tumor Uptake: Yes
Min Mouse Intestinal
  Tumor Uptake: Yes
Ovarian HTB-77
  Tumor Uptake: Yes
Pancreatic BXPC3
  Tumor Uptake: Yes
Pancreatic Capan-1
  Tumor Uptake: Yes
Pancreatic Kras
  Tumor Uptake: Yes
Pancreatic c-myc
  Tumor Uptake: Yes
Prostate LnCap
  Tumor Uptake: Yes
Prostate LuCap
  Tumor Uptake: Yes
Prostate MatLyLu
  Tumor Uptake: Yes
Prostate PC-3
  Tumor Uptake: Yes
Renal Cell ACHN
  Tumor Uptake: Yes
Renal Cell Caki-2
  Tumor Uptake: Yes
Retinoblastoma
  Tumor Uptake: Yes
SCC1
  Tumor Uptake: Yes
SCC6
  Tumor Uptake: Yes
Sarcoma (Meth-A)
  Tumor Uptake: Yes
TRAMP prostate
  Tumor Uptake: Yes
[4]
  Specificity for tumors and cancer cells: specific for tumors and cancer cells
Walker-256
  Tumor Uptake: Yes
[5]
  Uptake into cancer cells versus normal brain tissue and normal stem cells: specific uptake
Myeloma cell lines
  Uptake, myeloma cell lines: uptake
A549 cells
  Reduction in uptake after disruption of lipid rafts: 60%
Benign tissues
  Uptake in benign tissues: no uptake was observed

## COC(=O)[C@@H]1[C@H](O)[C@]2(O)c3c(OC)cc(OCCCCN)cc3O[C@]2(c2ccc(OC)cc2)[C@H]1c1ccccc1 [FLV3, reference compound]
[6]
  Cytotoxic potency to A549 cells versus NHDF cells (selectivity): near equal potency to the A549 cells as it did to the NHDF cells
[7]
  IC50: 15 nM
[8]
  IC50: 90 nM
[9]
  IC50: 9 nM
[10]; Homo sapiens, NHDF, read-out: IC50, NHDF
  IC50: 8 nM
[10]; not defined, equals NHDF IC50 over lowest tumor line IC50
  Therapeutic Index (TI): 0.89
[11]; Dose 0.1 mg/kg
  Mice alive after treatment: 3/3
[11]; Dose 0.25 mg/kg
  Mice alive after treatment: 3/3
A375 and A549 cells
  Time at which levels of intracellular FLV3 plateau: 24 h
A375 and A549 cells; after 24 hours
  Levels of FLV3 in the growth media: Moderate levels
A375 and A549 cells; after 24 hours, FIG. 11
  Levels of FLV3 in the cell lysate: high levels
